In patent publication US7842710B2, “Carboxamides” (Bayer Cropscience AG, priority 2004, dated 2010):

Test: logP determination by HPLC on a reverse phase column (C18), EEC Directive 79/831 Annex V.A8
Assay type: physicochemical
Conditions: HPLC C18, 43° C.; for logP (pH 2.3): Table 1; for chromatographic logP: reverse phase HPLC column (C18), pH 2.3
Procedure: The specified logP values are determined by HPLC on a reverse phase column (C18) in accordance with EEC Directive 79/831 Annex V.A8. Temperature: 43° C. Eluents for the measurement in the acid range (pH 2.3): 0.1% aqueous phosphoric acid, acetonitrile; linearer gradient of 10% acetonitrile to 90% acetonitrile. Calibration is performed with unbranched alkyl-2-ones (with 3 to 16 carbon atoms) with known logP values (determination of the logP values based on retention times by linear interpolation between two sequential alkyl ketones).

logP (pH 2.3) | chromatographic logP | SMILES
2.43 | – | Cc1nn(C)c(F)c1C(=O)Nc1ccccc1CCOC(=O)C(Cl)Cl [compound 68]
4.61 | – | CCCC(C)SC(C)c1ccccc1NC(=O)c1ccoc1C (stereo not drawn) [compound 77]
1.46 | – | Cc1nn(C)cc1C(=O)Nc1ccccc1C(C)S(=O)(=O)C(C)C (stereo not drawn) [compound 14]
3.76 | – | CC(SC1CCCC1)c1ccccc1NC(=O)c1cn(C)nc1C(F)(F)F (stereo not drawn) [compound 96]
2.39 | – | CC(C)S(=O)(=O)C(C)c1ccccc1NC(=O)C1=C(C(F)(F)F)OCCS1 (stereo not drawn) [compound 10]
– | 1.49 | CC(O)c1ccccc1[N+](=O)[O-] (stereo not drawn) [XI-1, 1-(2-nitrophenyl)ethanol]
4.38 | – | CCCC(C)SC(C)c1ccccc1NC(=O)c1c(C(F)(F)F)nn(C)c1F (racemic) [compound 111]
3.04 | – | Cc1nn(C)cc1C(=O)Nc1ccccc1C(C)SC1CCCC1 (stereo not drawn) [compound 95]
– | 0.58 | Cc1nn(C)c(F)c1C(=O)Nc1ccccc1C(C)NC(C)C (stereo not drawn) [Compound No. 40, 5-fluoro-N-{2-[1-(isopropylamino)ethyl]phenyl}-1,3-dimethyl-1H-pyrazole-4-carboxamide]
2.39 | – | Cc1nn(C)c(F)c1C(=O)Nc1ccccc1COC(=O)C(C)C [compound 51]
2.99 | – | COC(C)c1ccccc1NC(=O)c1ccccc1C(F)(F)F (racemic) [compound 34]
3.27 | – | CC(C)SC(C)c1ccccc1NC(=O)c1cn(C)nc1C(F)(F)F (stereo not drawn) [compound 18]
2.18 | – | COCc1ccccc1NC(=O)C1=C(C)OCC1 [compound 1]
4.52 | – | CCCC(C)SC(C)c1ccccc1NC(=O)c1sc(C)nc1C(F)(F)F (mixture of isomers) [compound 44]
4.63 | – | CCCC(C)SC(C)c1ccccc1NC(=O)c1ccccc1Br (stereo not drawn) [compound 81]
4.41 | – | CC(SC1CCCC1)c1ccccc1NC(=O)c1ccccc1C(F)(F)F (stereo not drawn) [compound 97]
4.76 | – | CCCC(C)SC(C)c1ccccc1NC(=O)c1ccccc1C (racemic) [compound 112]
2.76 | – | CC(C)SCc1ccccc1NC(=O)c1cn(C)nc1C(F)F [compound 38]
1.66 | – | Cc1nn(C)c(F)c1C(=O)Nc1ccccc1C(C)S(=O)(=O)C(C)C (stereo not drawn) [compound 11]
4.49 | – | CCCC(C)SC(C)c1ccccc1NC(=O)C1=C(C(F)(F)F)OCCS1 (racemic) [compound 110]
– | 1.94 | CC(C)SCc1ccccc1N [III-3, 2-[1-(isopropylthio)methyl]aniline]

logP (pH 2.3) | chromatographic logP | SMILES
3.49 | – | CC(C)C(=O)OCc1ccccc1N(C(=O)c1cccnc1Cl)C(=O)C(C)C [compound 59]
2.16 | – | Cc1nc(C(F)F)c(C(=O)Nc2ccccc2C(C)S(=O)(=O)C(C)C)s1 (stereo not drawn) [compound 13]
3.27 | – | Cc1nc(C(F)F)c(C(=O)Nc2ccccc2CSC(C)C)s1 [compound 35]
3.65 | – | CC1=C(C(=O)Nc2ccccc2C(C)SC(C)C)SCCO1 (stereo not drawn) [compound 98]
4.17 | – | CCC(C)SC(C)c1ccccc1NC(=O)c1ccoc1C (stereo not drawn) [compound 74]
4.10 | – | CCC(C)SC(C)c1ccccc1NC(=O)C1=C(C)OCCS1 (stereo not drawn) [compound 89]
4.31 | – | CCC(C)SC(C)c1ccccc1NC(=O)c1ccccc1C(F)(F)F (stereo not drawn) [compound 75]
1.61 | – | Cn1cc(C(=O)Nc2ccccc2CO)c(C(F)(F)F)n1 [compound 178]
4.03 | – | Cc1sccc1C(=O)Nc1ccccc1C(C)SC(C)C (stereo not drawn) [compound 20]
3.38 | – | CCC(C)SC(C)c1ccccc1NC(=O)c1c(C)nn(C)c1F (mixture of isomers) [compound 46]
3.55 | – | Cc1nc(C(F)F)c(C(=O)Nc2ccccc2C(C)SC(C)C)s1 (racemic) [compound 29]
3.83 | – | CC(C)OC(C)c1ccccc1NC(=O)c1ccccc1I (stereo not drawn) [compound 130]
3.68 | – | CC(C)SCc1ccccc1NC(=O)c1ccccc1I [compound 39]
4.60 | – | CCCC(C)SC(C)c1ccccc1NC(=O)c1ccccc1Cl (stereo not drawn) [compound 72]
3.71 | – | Cc1occc1C(=O)Nc1ccccc1C(C)SC(C)C (stereo not drawn) [compound 24]
2.36 | – | Cc1nn(C)c(F)c1C(=O)Nc1ccccc1COC(=O)C(Cl)Cl [compound 52]
4.34 | – | CC(SC1CCCC1)c1ccccc1NC(=O)c1ccccc1Br (stereo not drawn) [compound 93]
3.30 | – | CC(=O)OC(C)(C)CCc1ccccc1NC(=O)c1ccccc1C(F)(F)F [compound 61]
3.73 | – | Cc1nc(C(F)(F)F)c(C(=O)Nc2ccccc2C(C)SC(C)C)s1 (stereo not drawn) [compound 25]
2.46 | – | COC(C)c1ccccc1NC(=O)c1cn(C)nc1C(F)(F)F (racemic) [compound 32]
3.74 | – | CC(C)SC(C)c1ccccc1NC(=O)c1ccccc1Cl (stereo not drawn) [compound 21]

logP (pH 2.3) | chromatographic logP | SMILES
2.23 | – | CC(C)S(=O)(=O)C(C)c1ccccc1NC(=O)c1ccccc1Cl (stereo not drawn) [compound 12]
4.36 | – | CCCC(C)SC(C)c1ccccc1NC(=O)c1sc(C)nc1C(F)F (stereo not drawn) [compound 79]
4.07 | – | CCCC(C)SC(C)c1ccccc1NC(=O)c1c(C)nn(C)c1Cl (racemic) [compound 113]
3.92 | – | CCC(C)SC(C)c1ccccc1NC(=O)c1cn(C)cc1C(F)(F)F (stereo not drawn) [compound 88]
1.86 | – | CC(C)S(=O)(=O)C(C)c1ccccc1NC(=O)c1cn(C)nc1C(F)F (stereo not drawn) [compound 16]
2.72 | – | CC(C)OC(C)c1ccccc1NC(=O)c1cccnc1Cl (stereo not drawn) [compound 132]
4.71 | – | CCCC(C)SC(C)c1ccccc1NC(=O)c1ccccc1C(F)(F)F (stereo not drawn) [compound 70]
3.80 | – | Cc1occc1C(=O)Nc1ccccc1C(C)OC(C)C (stereo not drawn) [compound 126]
2.76 | – | Cn1cc(C(=O)Nc2ccccc2CCOC(=O)C(Cl)Cl)c(C(F)(F)F)n1 [compound 66]
4.12 | – | CCC(C)SC(C)c1ccccc1NC(=O)c1sc(C)nc1C(F)(F)F (mixture of isomers) [compound 48]
2.38 | – | CC(C)C(=O)OCc1ccccc1NC(=O)c1cccnc1Cl [compound 57]
– | 2.45 | CC(C)SC(C)c1ccccc1N (stereo not drawn) [III-1, 2-[1-(isopropylthio)ethyl]aniline]
2.17 | – | COC(C)c1ccccc1NC(=O)c1c(C)nn(C)c1F (racemic) [compound 31]
– | 0.05 | CC(C)NC(C)c1ccccc1N (stereo not drawn) [III-4, 2-[1-(isopropylamino)ethyl]aniline]
2.30 | – | CC(C)S(=O)(=O)C(C)c1ccccc1NC(=O)c1ccccc1Br (stereo not drawn) [compound 3]
– | 1.55 | Cn1cc(C(=O)Nc2ccccc2CO)c(C(F)(F)F)n1 [IV-1, N-[2-(hydroxymethyl)phenyl]-1-methyl-3-(trifluoromethyl)-1H-pyrazole-4-carboxamide]
4.03 | – | Cc1nn(C)c(F)c1C(=O)Nc1ccccc1C(C)SC1CCCC1 (stereo not drawn) [compound 100]
– | 2.87 | CC(Cl)c1ccccc1[N+](=O)[O-] (stereo not drawn) [VIII-1, 1-(1-chloroethyl)-2-nitrobenzene]
3.01 | – | CC(C)SC(C)c1ccccc1NC(=O)c1cn(C)nc1C(F)F (racemic) [compound 28]
2.35 | – | Cc1nc(C(F)(F)F)c(C(=O)Nc2ccccc2C(C)S(=O)(=O)C(C)C)s1 (stereo not drawn) [compound 9]
3.47 | – | CC1=C(C(=O)Nc2ccccc2C(C)OC(C)C)SCCO1 (stereo not drawn) [compound 128]

logP (pH 2.3) | chromatographic logP | SMILES
2.75 | – | CC(C)OC(C)c1ccccc1NC(=O)c1cn(C)nc1I (stereo not drawn) [compound 129]
2.79 | – | CC(C)C(=O)OCCc1ccccc1NC(=O)c1cn(C)nc1C(F)(F)F [compound 64]
4.75 | – | CCCC(C)SC(C)c1ccccc1NC(=O)c1ccccc1I (mixture of isomers) [compound 47]
5.60 | – | CC(C)OC(C)c1ccccc1NC(=O)c1cn(C)cc1C(F)(F)F (stereo not drawn) [compound 138]
3.76 | – | CCCC(C)SC(C)c1ccccc1NC(=O)c1cn(C)nc1C(F)F (stereo not drawn) [compound 85]
4.29 | – | CCCC(C)SC(C)c1ccccc1NC(=O)c1cn(C)cc1C(F)(F)F (racemic) [compound 109]
3.64 | – | CC(C)OC(C)c1ccccc1NC(=O)C1=C(C(F)(F)F)OCCS1 (stereo not drawn) [compound 137]
2.21 | – | Cc1occc1C(=O)Nc1ccccc1C(C)S(=O)(=O)C(C)C (stereo not drawn) [compound 8]
4.02 | – | CCCC(C)SC(C)c1ccccc1NC(=O)c1cn(C)nc1C(F)(F)F (mixture of isomers) [compound 42]
2.98 | – | Cc1nn(C)c(F)c1C(=O)Nc1ccccc1C(C)SC(C)C (stereo not drawn) [compound 19]
– | 3.89 | CC(C)SC(C)c1ccccc1[N+](=O)[O-] (stereo not drawn) [VII-1, 1-[1-(isopropylthio)ethyl]-2-nitrobenzene]
2.09 | – | CC(C)S(=O)(=O)C(C)c1ccccc1NC(=O)c1cn(C)nc1C(F)(F)F (stereo not drawn) [compound 15]
4.14 | – | CCC(C)SC(C)c1ccccc1NC(=O)c1cn(C)nc1C(F)(F)F (mixture of isomers) [compound 45]
3.24 | – | CC(C)C(=O)OCc1ccccc1NC(=O)c1ccccc1C(F)(F)F [compound 53]
2.43 | – | CC(C)S(=O)(=O)C(C)c1ccccc1NC(=O)c1ccccc1I (stereo not drawn) [compound 7]
3.82 | – | CCCC(C)SC(C)c1ccccc1NC(=O)c1c(C)nn(C)c1F (mixture of isomers) [compound 43]
4.07 | – | CCC(C)SC(C)c1ccccc1NC(=O)C1=C(C)OCCS1 (stereo not drawn) [compound 86]
3.99 | – | CCC(C)SC(C)c1ccccc1NC(=O)c1c(C(F)(F)F)nn(C)c1F (racemic) [compound 121]
